According to the NIST ThermoML archive (doi:10.1021/je700260f):

Conditions: 313.15 K, Liquid, Vibrating tube method

FC(C(F)(F)F)C(F)(F)F [1,1,1,2,3,3,3-heptafluoropropane]
Conditions | mass density [kg/m3]
6459 kPa | 1373.4
6490 kPa | 1373.6
6518 kPa | 1373.8
6545 kPa | 1374
6574 kPa | 1374.3
6602 kPa | 1374.5
6638 kPa | 1374.7
6666 kPa | 1374.8
6694 kPa | 1375.2
6718 kPa | 1375.4
6751 kPa | 1375.5
6776 kPa | 1375.7
6806 kPa | 1376
6835 kPa | 1376
6863 kPa | 1376.4
6883 kPa | 1376.7
6908 kPa | 1376.8
6938 kPa | 1376.9
6976 kPa | 1377.1
7006 kPa | 1377.4
7045 kPa | 1377.7
7079 kPa | 1377.9
7109 kPa | 1378.2
7139 kPa | 1378.3
7169 kPa | 1378.7
7198 kPa | 1378.8
7228 kPa | 1379
7266 kPa | 1379.4
7292 kPa | 1379.5
7326 kPa | 1379.7
7348 kPa | 1379.9
7382 kPa | 1380.1
7408 kPa | 1380.3
7438 kPa | 1380.5
7465 kPa | 1380.7
7501 kPa | 1380.9
7527 kPa | 1381.2
7556 kPa | 1381.4
7582 kPa | 1381.6
7612 kPa | 1381.8
7638 kPa | 1382.1
7677 kPa | 1382.3
7703 kPa | 1382.3
7742 kPa | 1382.8
7768 kPa | 1382.8
7798 kPa | 1383
7824 kPa | 1383.2
7851 kPa | 1383.5
7874 kPa | 1383.6
7910 kPa | 1383.8
7931 kPa | 1383.9
7958 kPa | 1384.2
7993 kPa | 1384.3
8020 kPa | 1384.6
8059 kPa | 1384.9
8094 kPa | 1385
8129 kPa | 1385.4
8156 kPa | 1385.5
8196 kPa | 1385.9
8223 kPa | 1386
8263 kPa | 1386.4
8295 kPa | 1386.4
8331 kPa | 1386.7
8367 kPa | 1387
8399 kPa | 1387.1
8430 kPa | 1387.3
8461 kPa | 1387.6
8497 kPa | 1387.9
8523 kPa | 1388.2
8564 kPa | 1388.3
8622 kPa | 1388.8
8654 kPa | 1388.8
8689 kPa | 1389.1
8720 kPa | 1389.4
8766 kPa | 1389.7
8798 kPa | 1390
8834 kPa | 1390.1
8861 kPa | 1390.3
8887 kPa | 1390.6
8915 kPa | 1390.6
8943 kPa | 1390.9
8979 kPa | 1391.1
9019 kPa | 1391.5
9044 kPa | 1391.5
9072 kPa | 1391.7
9097 kPa | 1391.9
9130 kPa | 1392.1
9160 kPa | 1392.2
9179 kPa | 1392.3
9214 kPa | 1392.6
9236 kPa | 1392.7
9263 kPa | 1393
9286 kPa | 1393.1
9320 kPa | 1393.4
9340 kPa | 1393.4
9367 kPa | 1393.6
9393 kPa | 1393.8
9419 kPa | 1394
9443 kPa | 1394
9465 kPa | 1394.3
9495 kPa | 1394.3
9518 kPa | 1394.6
